Key:
Type in all cases: in vivo
[1] = system: Alopecurus myosuroides (ALOMY); assay: Example B pre-emergence herbicidal activity, glasshouse pot test; conditions: 312 h, rate 250 g/ha, evaluated after 13 days, read-out: Pre-emergence activity ALOMY (100=total damage to plant; 0=no damage to plant)
How it was run: (§1)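 Herbicidal effect was judged 13 days after treatment as percent-style damage (100 = total kill). Seeds in standard soil had grown 1 day (pre) or 8 days (post) in a 24/16 °C, 14 h light, 65% humidity glasshouse before spraying with compound in acetone/water (50:50) containing 0.5% Tween 20.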

[2] = system: Amaranthus retroflexus (AMARE); assay: as above; conditions: 312 h, rate 250 g/ha, evaluated after 13 days, read-out: Pre-emergence activity AMARE (100=total damage to plant; 0=no damage to plant)
How it was run: as §1

Avena fatua (AVEFA) [3] = assay: as above; conditions: 312 h, rate 250 g/ha, evaluated after 13 days, read-out: Pre-emergence activity AVEFA (100=total damage to plant; 0=no damage to plant)
How it was run: as §1

[4] = system: Echinochloa crus-galli (ECHCG); assay: as above; conditions: 312 h, rate 250 g/ha, evaluated after 13 days, read-out: Pre-emergence activity ECHCG (100=total damage to plant; 0=no damage to plant)
How it was run: as §1

Setaria faberi (SETFA) [5] = assay: as above; conditions: 312 h, rate 250 g/ha, evaluated after 13 days, read-out: Pre-emergence activity SETFA (100=total damage to plant; 0=no damage to plant)
How it was run: as §1

[6] = system: Alopecurus myosuroides (ALOMY); assay: Example B post-emergence herbicidal activity, glasshouse pot test; conditions: 312 h, rate 250 g/ha, evaluated after 13 days, read-out: Post-emergence activity ALOMY (100=total damage to plant; 0=no damage to plant)
How it was run: as §1

[7] = system: Amaranthus retroflexus (AMARE); assay: as above; conditions: 312 h, rate 250 g/ha, evaluated after 13 days, read-out: Post-emergence activity AMARE (100=total damage to plant; 0=no damage to plant)
How it was run: as §1

Avena fatua (AVEFA) [8] = assay: as above; conditions: 312 h, rate 250 g/ha, evaluated after 13 days, read-out: Post-emergence activity AVEFA (100=total damage to plant; 0=no damage to plant)
How it was run: as §1

[9] = system: Echinochloa crus-galli (ECHCG); assay: as above; conditions: 312 h, rate 250 g/ha, evaluated after 13 days, read-out: Post-emergence activity ECHCG (100=total damage to plant; 0=no damage to plant)
How it was run: as §1

Setaria faberi (SETFA) [10] = assay: as above; conditions: 312 h, rate 250 g/ha, evaluated after 13 days, read-out: Post-emergence activity SETFA (100=total damage to plant; 0=no damage to plant)
How it was run: as §1

| Compound | pest or weed control at 250 g/ha [1] [%] | pest or weed control at 250 g/ha [2] [%] | pest or weed control at 250 g/ha (Avena fatua (AVEFA) [3]) [%] | pest or weed control at 250 g/ha [4] [%] | pest or weed control at 250 g/ha (Setaria faberi (SETFA) [5]) [%] | pest or weed control at 250 g/ha [6] [%] | pest or weed control at 250 g/ha [7] [%] | pest or weed control at 250 g/ha (Avena fatua (AVEFA) [8]) [%] | pest or weed control at 250 g/ha [9] [%] | pest or weed control at 250 g/ha (Setaria faberi (SETFA) [10]) [%] |
| --- | --- | --- | --- | --- | --- | --- | --- | --- | --- | --- |
| CCc1ccc(-c2ccc(Cl)cc2)cc1C1=C(O)[C@]2(C)O[C@@H](CC2COC)C1=O (some centres unmarked) [Compound A-122] | 40 | 0 | 100 | 90 | 100 | 80 | 40 | 50 | 100 | 100 |
| Cc1ccc(-c2ccc(Cl)cc2Cl)cc1C1=C(O)C(C)(C)[S+]([O-])C(C)(C)C1=O (single isomer, unassigned) [Compound C-7] | 0 | 0 | 0 | 0 | 0 | 20 | 0 | 0 | 60 | 30 |
| CC1(C)OC(C)(C)C(O)=C(c2cc(-c3ccc(Cl)cc3F)ccc2Cl)C1=O [Compound A-141] | 20 | 0 | 30 | 100 | 80 | 50 | 0 | 50 | 100 | 80 |
| Cc1ccc(-c2ccc(Cl)cc2F)cc1C1=C(O)C(C)(C)OC(C)(C)C1=O [Compound A-59] | 30 | 0 | 40 | 90 | 40 | 30 | 0 | 50 | 100 | 90 |
| CCc1ccc(-c2ccc(Cl)c(Cl)c2F)cc1C1=C(O)C(C)(C)OC(C)(C)C1=O [Compound A-155] | 50 | 0 | 0 | 100 | 100 | 100 | 40 | 90 | 100 | 100 |
| CCc1ccc(-c2ccc(Cl)cc2C(F)(F)F)cc1C1=C(O)C(C)(C)OC(C)(C)C1=O [Compound A-72] | 0 | 0 | 0 | 40 | 0 | 20 | 60 | 0 | 80 | 80 |
| CCc1ccc(-c2ccc(Br)cc2)cc1C1=C(O)C(C)(C)OC(C)(C)C1=O [Compound A-81] | 80 | 0 | 90 | 100 | 100 | 100 | 0 | 100 | 100 | 100 |
| Cc1ccc(-c2ccc(Br)cc2)cc1C1=C(O)C(C)(C)OC(C)(C)C1=O [Compound A-82] | 80 | 20 | 90 | 100 | 90 | 100 | 0 | 100 | 100 | 100 |
| CCc1ccc(-c2ccc(Cl)cc2Cl)cc1C1=C(OC(=O)COC)C(C)(C)OC(C)(C)C1=O [Compound D-24] | 0 | 20 | 0 | 100 | 90 | 0 | 0 | 20 | 100 | 100 |
| CC(=O)OC1=C(c2cc(-c3ccc(Cl)cn3)ccc2C)C(=O)C(C)(C)OC1(C)C [Compound D-28] | 30 | 0 | 40 | 20 | 80 | 80 | 0 | 50 | 90 | 80 |
| CCOC[C@]12CC[C@H](O1)C(=O)C(c1cc(-c3ccc(Cl)cc3)ccc1CC)=C2O (single isomer, unassigned) [Compound A-124] | 50 | 0 | 60 | 70 | 100 | 80 | 20 | 90 | 100 | 100 |
| CCc1ccc(-n2cnc(Cl)c2Cl)cc1C1=C(OC(=O)OC)C(C)(C)OC(C)(C)C1=O [Compound D-32] | 20 | 0 | 80 | 60 | 80 | 50 | 0 | 70 | 90 | 80 |
| CCc1ccc(-c2ccc(I)cc2)cc1C1=C(O)C(C)(C)OC(C)(C)C1=O [Compound A-101] | 70 | 0 | 100 | 100 | 100 | 100 | 0 | 100 | 100 | 100 |
| CCc1ccc(-c2ccc(Cl)cc2Cl)cc1C1=C(O)C(C)(C)OC(C)C1=O (single isomer, unassigned) [Compound A-71] | 40 | 0 | 20 | 80 | 100 | 30 | 100 | 30 | 100 | 100 |
| CCc1ccc(-c2ccc(Cl)c(OC)c2)cc1C1=C(O)C(C)(C)OC(C)(C)C1=O [Compound A-135] | 80 | 0 | 100 | 100 | 100 | 100 | 0 | 100 | 100 | 100 |
| CCc1ccc(-c2ccc(Cl)cc2Cl)cc1C1=C(O)[C@@]2(C)CC[C@H](O2)C1=O (single isomer, unassigned) [Compound A-128] | 40 | 0 | 80 | 70 | 90 | 80 | 0 | 90 | 100 | 100 |
| CCc1ccc(-c2ccc(Cl)c(F)c2F)cc1C1=C(O)C(C)(C)OC(C)(C)C1=O [Compound A-153] | 60 | 0 | 50 | 100 | 100 | 100 | 30 | 100 | 100 | 100 |
